Columns and labels:
[1] = tested on: Intracranial medulloblastoma model (conditional Patchedl null) mice; assay: Survival of intracranial medulloblastoma model mice; format: in vivo, mouse; settings: injected daily with 20 mg/kg, monitored for 50 days, versus vehicle only
Protocol: The results of the in vivo experiment depicted in FIG. 12 predicted that Shh antagonists would have a positive effect on a mouse model of cancer. Intracranial medulloblastoma model (conditional Patchedl null) mice used in this experiment develop medulloblastoma with an early onset and 100% penetrance. Accordingly, mice were injected daily with 20 mg/kg of either A) vehicle plus IPI-926 (n=12); or B) vehicle only (n=11). The mice were monitored for 50 days for survival, and the results depicted in FIG. 13.

[2] = tested on: mouse tumor; assay: Spatially restricted injection into a mouse tumor with indicator dyes (apoptosis signal imaging); format: in vivo; settings: excitation 640 nm, emission 720 nm of the dye, versus control
Protocol: FIG. 14 depicts the use of various indicator dyes according to the method, to monitor spatially restricted delivery of compounds and resulting localized effects on regions of a tumor. A mouse tumor was injected with 1. doxorubicin; and 2. a control. Panel A illustrates excitation at 640 nm and emission at 800 nm of the dye. Panel B illustrates the doxorubicin signal (3.) observed after excitation at 500 nm and emission at 600 nm of doxorubicin. Panel C illustrates an apoptosis signal (4.) observed after excitation at 640 nm and emission at 720 nm of the dye.

[3] = tested on: lymphoma tumor; assay: Doxorubicin delivered to a lymphoma tumor using a porous tube; fluorescence and brightfield microscopy of tumor slices; format: in vivo; settings: porous tube delivery, three tumor depths
Description: Doxorubicin was delivered to a lymphoma tumor using a porous tube of the method. The tumor was then excised and sectioned. […] Regions of doxorubicin fluorescence and cell death are localized to a zone within the tumor slice, reflecting spatially constrained doxorubicin delivery.

SMILES	survival [1]	apoptosis signal [2]	cell death in tumor slices [3]
CC1=C2C[C@H]3[C@@H](CC[C@@H]4C[C@H](NS(C)(=O)=O)CC[C@@]43C)[C@@H]2CC[C@@]2(C1)O[C@@H]1C[C@H](C)CN[C@H]1[C@H]2C [IPI-926]	significantly increased survival		
COc1cccc2c1C(=O)c1c(O)c3c(c(O)c1C2=O)C[C@@](O)(C(=O)CO)C[C@@H]3O[C@H]1C[C@H](N)[C@H](O)[C@H](C)O1 [Doxorubicin]		apoptosis overlaps with the region that received doxorubicin	Cell death was observed in a localized area

— patent US20210170052A1, “THERAPEUTIC METHODS AND COMPOSITIONS FOR SOLID DELIVERY” (Presage Biosciences, Inc., priority 2010, published 2021)
